Source: patent US11866405B2, “Substituted indazoles as IRAK4 inhibitors” (AstraZeneca AB, priority 2020, dated 2024)

Tests used:
[1] = system: IL-1β stimulated IL-8 release in hTHP1 cells; assay: IL-1β-induced IL-8 release in human THP-1 monocyte cell line; format: cell-based; conditions: Homo sapiens, THP-1, 18 h, THP-1 cells, IL-1β 1.8 ng/mL, geometric mean of at least n=2, * n = 1, read-out: hTHP1, IL1β stim, IL8 release red. IC50
Protocol: Effect of IRAK4 Inhibitors on IL-1β-Induced Cytokine Release in Human THP-1 Monocyte Cell Line
THP-1 cells were cultured in RPMI 1640 (Gibco 72400-021) containing 10% FBS (Gibco 10270-106), 1 mM Na-pyruvate (Gibco 11360-070) and 100 U/mL Penicillin-Streptomycin (Gibco 15140-122). Cells were plated at 5×10^4 cells per well in 384 well Echo certified plates (Labcyte PPT-0200) to which compounds had been added at various concentrations (10 point half log dose response with a final top concentration of 10 μM) using an Echo 655 (Labcyte Inc). The plate was incubated for 1 h at 37° C., then recombinant […] (R&D Systems 201-LB-025/CF) was added to a final concentration of 1.8 ng/mL. The plates were incubated at 37° C. for 18h. The plates were centrifuged at 250×g for four minutes, then 1.6 μL of the cell supernatant was transferred to a white low volume 384 well plate (Greiner #784075) using acoustic dispensing on an Echo 655. Next, 200 nL of acceptor bead (5 mg/mL) and biotinylated anti-IL-8 antibody (500 nM) was added using acoustic dispensing (beads and antibody were from a PerkinElmer 18 Alpha LISA detection kit, AL224C). The plate was sealed, briefly centrifuged, then incubated at room temperature for 1 h. Afterwards, 200 nL of donor bead solution (5 mg/mL) was added, the plate sealed and briefly centrifuged, then incubated for 1 h before being read on an Envision plate reader to allow determination the concentration of IRAK4 inhibitor required to effect a 50% reduction in the amount of IL-8 released following IL-1β stimulation in THP1 cells (Table 2). The quantified data were analysed in Genedata Screener 15 (Genedata AG). Data presented are the geometric mean of at least n=2, or as denoted by an * are obtained from a single experiment.

[2] = molecular target: IRAK4 auto-phosphorylation (Homo sapiens (Human), UniProt Q9NWZ3); assay: IRAK4 phosphorylation cell assay in IL-1β-stimulated Karpas-299 cells; format: cell-based; conditions: IL-1β 22.7 ng/mL, pIRAK4 (Thr345/Ser346), geometric mean of at least 2 experiments
Outline: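 Karpas-299 cells were preincubated 1 h at 37 °C with compound (10-point half-log series, top 30 μM), then stimulated 10 min with 22.7 ng/mL IL-1β. Cells were fixed and stained for pIRAK4 (Thr345/Ser346), and per-cell fluorescence was quantified by high-content imaging. IC50 values are geometric means of at least 2 experiments.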

IRAK4 auto-phosphorylation, sequence (Q9NWZ3 whole entry): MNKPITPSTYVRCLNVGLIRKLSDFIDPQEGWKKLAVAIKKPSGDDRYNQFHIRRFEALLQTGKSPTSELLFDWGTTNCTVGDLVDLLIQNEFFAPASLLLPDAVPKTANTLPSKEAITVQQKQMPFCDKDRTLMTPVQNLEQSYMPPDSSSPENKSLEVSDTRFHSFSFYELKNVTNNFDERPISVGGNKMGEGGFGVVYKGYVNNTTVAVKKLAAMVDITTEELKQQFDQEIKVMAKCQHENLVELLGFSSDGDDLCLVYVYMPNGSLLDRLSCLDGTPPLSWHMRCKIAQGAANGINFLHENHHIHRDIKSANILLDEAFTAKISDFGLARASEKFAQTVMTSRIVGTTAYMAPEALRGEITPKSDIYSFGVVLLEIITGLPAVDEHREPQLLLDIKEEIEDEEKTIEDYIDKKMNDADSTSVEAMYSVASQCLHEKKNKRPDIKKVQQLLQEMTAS

With COc1cc2nn([C@@H]3CC[C@@H](O)C[C@H]3C)cc2cc1C(=O)Nc1cnc2cccnn12 [Example 89, 2-((1R,2R,4R)-4-hydroxy-2-methylcyclohexyl)-N-(imidazo[1,2-b]pyridazin-3-yl)-6-methoxy-2H-indazole-5-carboxamide] the IC50 [1] was 31 nM and the IC50 [2] was 36 nM.
